Here are results for 6 compounds from ChEMBL document CHEMBL5537193, “Multitargeting HDAC Inhibitors Containing a RAS/RAF Protein Interfering Unit” (J Med Chem, 2024).

Active and inactive are the calls of the source.

Series [1] concerns HT-29. Nature of the series: Inhibition of MAPK signaling pathway in human HT-29 cells assessed as inhibition of C-RAF phosphorylation at Ser338 residue at 2 uM incubated for 24 hrs by Western blot analysis. It counts as cell-based. (In general: Immunoblotting shows a protein as a band on a membrane.)
In another series the test system is NCI-H1975. Kind of series: cells. The conditions noted are these: Homo sapiens, NCI-H1975, 72 h.
The next series concerns MV4-11. Kind of series: cells. The conditions noted are these: Homo sapiens, MV4-11, 72 h.
The test system of series [2] is HT-29. Nature of the series: Effect on ERK1/2 protein expression in human HT-29 cells at 2 uM incubated for 24 hrs by Western blot analysis. It counts as functional, cell-based.
The nature of series [3]: Metabolic stability in rat liver microsomes assessed as half-life at 1 uM measured upto 40 mins by LC-MS/MS analysis. The series is classed as ADME, Microsome. (Liver microsomes are a subcellular fraction often used to study metabolism.)
Series [4] has as its system HT-29. Nature of the series: Inhibition of MAPK signaling pathway in human HT-29 cells assessed as inhibition of ERK1/2 phosphorylation at 2 uM incubated for 24 hrs by Western blot analysis. The series is classed as cell-based.
Series [5] concerns PANC-1. Nature of the series: Induction of apoptosis in human PANC-1 cells assessed as increase in cleaved caspase-9 expression level at 2 uM incubated for 24 hrs by Western blot analysis. It counts as functional, cell-based.
The subject of series [6] is PANC-1. Kind of series: Effect on ERK1/2 protein expression in human PANC-1 cells at 2 uM incubated for 24 hrs by Western blot analysis. The series is classed as functional, cell-based.
A short description of series [7]: Metabolic stability in rat liver microsomes assessed as intrinsic clearance at 1 uM measured upto 40 mins by LC-MS/MS analysis. It counts as ADME, Microsome. As to conditions: read-out: CLH.
The subject of series [8] is PANC-1. Nature of the series: Effect on MEK protein expression in human PANC-1 cells at 2 uM incubated for 24 hrs by Western blot analysis. It counts as functional, cell-based.
The subject of series [9] is PANC-1. Nature of the series: cells. As to conditions: Homo sapiens, PANC-1, 72 h.
Description: Cytotoxicity against human PANC-1 cells assessed as inhibition of cell growth incubated for 72 hrs by MTT assay
Series [10] can be described thus: Metabolic stability in mouse liver microsomes assessed as half-life at 1 uM measured upto 40 mins by LC-MS/MS analysis. The series is classed as ADME, Microsome.
A further series concerns HepG2. Kind of series: cells. As to conditions: Homo sapiens, HepG2, 72 h.
The subject of series [11] is PANC-1. Nature of the series: Inhibition of MAPK signaling pathway in human PANC-1 cells assessed as inhibition of ERK1/2 phosphorylation at 2 uM incubated for 24 hrs by Western blot analysis. It counts as cell-based.
A further series concerns MCF7. Kind of series: cells. The conditions noted are these: Homo sapiens, MCF7, 72 h.
Series [12] relates to PANC-1. Kind of series: Cell cycle arrest in human PANC-1 cells assessed as accumulation of cells at G2-M phase at 2 uM incubated for 24 hrs by PI/RNase staining based flow cytometric analysis. It counts as functional. (Flow cytometry measures light scatter and fluorescence of single cells or particles in a stream.)
For series [13], the target named is Serine/threonine-protein kinase PLK1 (Homo sapiens, UniProt P53350). Kind of series: Inhibition of PLK1 (unknown origin).
Sequence of Serine/threonine-protein kinase PLK1 (P53350 whole entry): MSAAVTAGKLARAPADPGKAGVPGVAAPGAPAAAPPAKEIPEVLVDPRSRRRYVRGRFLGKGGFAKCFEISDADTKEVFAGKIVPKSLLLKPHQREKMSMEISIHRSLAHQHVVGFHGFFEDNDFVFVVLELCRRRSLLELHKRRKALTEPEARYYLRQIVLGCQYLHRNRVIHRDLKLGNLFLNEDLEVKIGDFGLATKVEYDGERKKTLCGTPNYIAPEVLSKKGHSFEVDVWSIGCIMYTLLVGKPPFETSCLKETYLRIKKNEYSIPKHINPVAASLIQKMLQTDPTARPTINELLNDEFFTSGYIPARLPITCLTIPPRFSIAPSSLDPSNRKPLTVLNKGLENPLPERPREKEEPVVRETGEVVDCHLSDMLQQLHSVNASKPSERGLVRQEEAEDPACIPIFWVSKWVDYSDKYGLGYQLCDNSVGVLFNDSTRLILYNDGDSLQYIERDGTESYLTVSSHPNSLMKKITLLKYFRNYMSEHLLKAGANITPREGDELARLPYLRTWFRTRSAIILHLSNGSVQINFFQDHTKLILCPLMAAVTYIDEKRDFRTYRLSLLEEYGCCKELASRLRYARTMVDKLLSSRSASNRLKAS
Series [14] concerns PANC-1. Kind of series: Inhibition of MAPK signaling pathway in human PANC-1 cells assessed as inhibition of C-RAF phosphorylation at Ser338 residue at 2 uM incubated for 24 hrs by Western blot analysis. The series is classed as cell-based.
The subject of series [15] is HT-29. Kind of series: Effect on RAS protein expression in human HT-29 cells at 2 uM incubated for 24 hrs by Western blot analysis. It counts as functional, cell-based.
Series [16] relates to PANC-1. Kind of series: Induction of apoptosis in human PANC-1 cells assessed as increase in cleaved caspase-3 expression level at 2 uM incubated for 24 hrs by Western blot analysis. It counts as functional, cell-based.
The nature of series [17]: Metabolic stability in human liver microsomes assessed as intrinsic clearance at 1 uM measured upto 40 mins by LC-MS/MS analysis. As to conditions: read-out: CLH. It counts as ADME, Microsome.
Series [18] has as its system HT-29. Nature of the series: Induction of apoptosis in human HT-29 cells assessed as apoptotic ratio at 2 uM incubated for 24 hrs by flow cytometric analysis. The series is classed as functional.
For another series, the system named is A549. Kind of series: cells. As to conditions: Homo sapiens, A549, 72 h.
The subject of series [19] is PANC-1. Kind of series: Induction of apoptosis in human PANC-1 cells assessed as increase in cleaved PARP expression level at 2 uM incubated for 24 hrs by Western blot analysis. The series is classed as functional, cell-based.
Series [20] is described as follows: Metabolic stability in human liver microsomes assessed as half-life at 1 uM measured upto 40 mins by LC-MS/MS analysis. The series is classed as ADME, Microsome.
For another series, the system named is A-431. Kind of series: cells. As to conditions: Homo sapiens, A-431, 72 h.
For series [21], the system named is PANC-1. Nature of the series: Effect on alpha-tubulin expression in human PANC-1 cells at 2 uM incubated for 24 hrs by Western blot analysis. The series is classed as functional, cell-based.
In series [22] the test system is PANC-1. Kind of series: Induction of apoptosis in human PANC-1 cells assessed as increase in Bax expression at 2 uM incubated for 24 hrs by Western blot analysis. The series is classed as functional, cell-based.
A further series deals with Histone deacetylase 9 (Homo sapiens, UniProt Q9UKV0). Kind of series: Inhibition of HDAC9 (unknown origin).
Sequence of Histone deacetylase 9 (Q9UKV0 whole entry): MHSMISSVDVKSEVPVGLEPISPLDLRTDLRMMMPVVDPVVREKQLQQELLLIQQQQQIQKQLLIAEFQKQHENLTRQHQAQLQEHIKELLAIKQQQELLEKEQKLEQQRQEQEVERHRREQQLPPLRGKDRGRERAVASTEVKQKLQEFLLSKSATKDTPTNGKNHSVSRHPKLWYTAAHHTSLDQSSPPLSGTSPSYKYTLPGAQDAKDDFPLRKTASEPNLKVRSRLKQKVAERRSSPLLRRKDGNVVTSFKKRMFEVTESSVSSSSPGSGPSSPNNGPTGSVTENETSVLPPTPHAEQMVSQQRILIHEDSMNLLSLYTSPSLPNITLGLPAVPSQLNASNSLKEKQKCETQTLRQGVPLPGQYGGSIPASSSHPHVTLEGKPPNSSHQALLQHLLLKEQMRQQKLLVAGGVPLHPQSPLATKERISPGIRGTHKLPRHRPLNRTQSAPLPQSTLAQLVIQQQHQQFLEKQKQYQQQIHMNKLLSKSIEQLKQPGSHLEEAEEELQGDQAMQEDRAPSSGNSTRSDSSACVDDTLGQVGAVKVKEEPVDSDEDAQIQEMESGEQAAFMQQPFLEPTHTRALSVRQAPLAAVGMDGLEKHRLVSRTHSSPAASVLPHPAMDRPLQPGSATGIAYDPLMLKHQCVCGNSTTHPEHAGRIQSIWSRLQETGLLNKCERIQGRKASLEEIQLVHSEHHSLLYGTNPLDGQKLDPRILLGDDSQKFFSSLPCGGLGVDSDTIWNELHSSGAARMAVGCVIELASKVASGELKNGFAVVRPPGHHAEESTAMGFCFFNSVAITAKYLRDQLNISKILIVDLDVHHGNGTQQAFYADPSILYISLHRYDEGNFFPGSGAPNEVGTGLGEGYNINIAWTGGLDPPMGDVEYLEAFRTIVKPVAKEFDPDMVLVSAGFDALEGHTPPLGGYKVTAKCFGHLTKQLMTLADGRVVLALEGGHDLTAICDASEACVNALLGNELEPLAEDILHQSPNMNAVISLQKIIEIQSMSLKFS
Series [23] deals with HT-29. Nature of the series: Induction of apoptosis in human HT-29 cells incubated for 24 hrs by flow cytometric analysis. It counts as functional, cell-based. As to conditions: dose 1-4 µM.
In another series the test system is L02. Kind of series: cells. The conditions noted are these: Homo sapiens, L02, 72 h.
Series [24] relates to PANC-1. Kind of series: Induction of apoptosis in human PANC-1 cells assessed as increase in Cytochrome C expression level at 2 uM incubated for 24 hrs by Western blot analysis. It counts as functional, cell-based.
In series [25] the test system is PANC-1. Kind of series: Induction of apoptosis in human PANC-1 cells incubated for 24 hrs by flow cytometric analysis. The series is classed as functional, cell-based. As to conditions: dose 1-4 µM.
The next series has as its system SGC-7901. Kind of series: cells. As to conditions: Homo sapiens, SGC-7901, 72 h.
Series [26] relates to PANC-1. Kind of series: Effect on RAS protein expression in human PANC-1 cells at 2 uM incubated for 24 hrs by Western blot analysis. The series is classed as functional, cell-based.
The next series concerns K562. Nature of the series: cells. As to conditions: Homo sapiens, K562, 72 h.
Series [27] concerns HT-29. Kind of series: cells. As to conditions: Homo sapiens, HT-29, 72 h.
Description: Cytotoxicity against human HT-29 cells assessed as inhibition of cell growth incubated for 72 hrs by MTT assay
Series [28] concerns PANC-1. Kind of series: Inhibition of MAPK signaling pathway in human PANC-1 cells assessed as inhibition of MEK phosphorylation at 2 uM incubated for 24 hrs by Western blot analysis. It counts as cell-based.
In series [29] the test system is PANC-1. Nature of the series: Induction of apoptosis in human PANC-1 cells assessed as apoptotic cells at 2 uM incubated for 24 hrs by flow cytometric analysis relative to control. It counts as functional.
For series [30], the system named is HT-29. Kind of series: Cell cycle arrest in human HT-29 cells assessed as accumulation of cells at G2-M phase at 2 uM incubated for 24 hrs by PI/RNase staining based flow cytometric analysis. It counts as functional.
Series [31] relates to HT-29. Kind of series: Effect on Histone H3 expression in human HT-29 cells at 2 uM incubated for 24 hrs by Western blot analysis. It counts as functional, cell-based.
For series [32], the system named is HT-29. Kind of series: Effect on MEK protein expression in human HT-29 cells at 2 uM incubated for 24 hrs by Western blot analysis. It counts as functional, cell-based.
Series [33] has as its system PANC-1. Kind of series: Effect on Histone H3 expression in human PANC-1 cells at 2 uM incubated for 24 hrs by Western blot analysis. It counts as functional, cell-based.
A short description of series [34]: Metabolic stability in mouse liver microsomes assessed as intrinsic clearance at 1 uM measured upto 40 mins by LC-MS/MS analysis. As to conditions: read-out: CLH. It counts as ADME, Microsome.
Series [35] concerns HT-29. Kind of series: Inhibition of MAPK signaling pathway in human HT-29 cells assessed as inhibition of MEK phosphorylation at 2 uM incubated for 24 hrs by Western blot analysis. It counts as cell-based.
A further series concerns the target Histone deacetylase 4 (Homo sapiens, UniProt P56524). Kind of series: Inhibition of HDAC4 (unknown origin).
The test system of series [36] is HT-29. Kind of series: Effect on alpha-tubulin expression in human HT-29 cells at 2 uM incubated for 24 hrs by Western blot analysis. The series is classed as functional, cell-based.

Sequence of Histone deacetylase 4 (P56524 whole entry): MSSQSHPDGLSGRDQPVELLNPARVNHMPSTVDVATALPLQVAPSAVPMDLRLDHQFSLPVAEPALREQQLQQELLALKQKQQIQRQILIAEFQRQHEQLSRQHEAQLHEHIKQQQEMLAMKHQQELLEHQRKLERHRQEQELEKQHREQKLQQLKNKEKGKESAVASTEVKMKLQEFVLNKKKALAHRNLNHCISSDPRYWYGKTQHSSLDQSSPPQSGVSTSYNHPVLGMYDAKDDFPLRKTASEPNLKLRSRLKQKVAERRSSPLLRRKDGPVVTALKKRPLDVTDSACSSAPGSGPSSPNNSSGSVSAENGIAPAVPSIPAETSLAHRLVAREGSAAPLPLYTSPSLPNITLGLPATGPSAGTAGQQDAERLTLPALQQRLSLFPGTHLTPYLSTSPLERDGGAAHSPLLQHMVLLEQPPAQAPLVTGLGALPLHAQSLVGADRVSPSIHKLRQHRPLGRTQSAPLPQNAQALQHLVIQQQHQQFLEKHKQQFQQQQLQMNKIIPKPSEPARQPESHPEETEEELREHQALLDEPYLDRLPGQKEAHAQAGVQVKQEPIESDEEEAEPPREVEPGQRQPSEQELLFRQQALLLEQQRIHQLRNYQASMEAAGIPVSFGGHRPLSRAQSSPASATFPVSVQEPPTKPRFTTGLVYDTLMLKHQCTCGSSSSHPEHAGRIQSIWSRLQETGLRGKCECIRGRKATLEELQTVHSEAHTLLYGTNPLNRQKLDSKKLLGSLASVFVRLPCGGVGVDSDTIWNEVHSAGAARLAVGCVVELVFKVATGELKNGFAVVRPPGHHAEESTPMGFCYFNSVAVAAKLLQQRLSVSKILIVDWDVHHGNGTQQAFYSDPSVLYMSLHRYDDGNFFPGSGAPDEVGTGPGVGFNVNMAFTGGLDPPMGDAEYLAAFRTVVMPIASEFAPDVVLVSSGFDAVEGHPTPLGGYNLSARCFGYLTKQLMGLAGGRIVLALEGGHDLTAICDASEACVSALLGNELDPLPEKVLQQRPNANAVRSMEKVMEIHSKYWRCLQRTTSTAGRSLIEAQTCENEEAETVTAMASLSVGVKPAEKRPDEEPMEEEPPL
Description for A-431: Cytotoxicity against human A-431 cells assessed as inhibition of cell growth incubated for 72 hrs by MTT assay
Description for A549: Cytotoxicity against human A549 cells assessed as inhibition of cell growth incubated for 72 hrs by MTT assay
Description for HepG2: Cytotoxicity against human HepG2 cells assessed as inhibition of cell growth incubated for 72 hrs by MTT assay
Description for K562: Cytotoxicity against human K562 cells assessed as inhibition of cell growth incubated for 72 hrs by MTT assay
Description for L02: Cytotoxicity against human L02 cells assessed as inhibition of cell growth incubated for 72 hrs by MTT assay
Description for MCF7: Cytotoxicity against human MCF7 cells assessed as inhibition of cell growth incubated for 72 hrs by MTT assay
Description for MV4-11: Cytotoxicity against human MV4-11 cells assessed as inhibition of cell growth incubated for 72 hrs by MTT assay
Description for NCI-H1975: Cytotoxicity against human NCI-H1975 cells assessed as inhibition of cell growth incubated for 72 hrs by MTT assay
Description for SGC-7901: Cytotoxicity against human SGC-7901 cells assessed as inhibition of cell growth incubated for 72 hrs by MTT assay

As to `COc1cc(OC)c(/C=C/S(=O)(=O)Cc2ccc(OC)c(NC(=O)CCC(=O)NO)c2)c(OC)c1`, the inhibition entry in the series with HT-29 [1], in the series on HT-29 [4], in the series on PANC-1 [11], with PANC-1 [14], in the series with PANC-1 [28] and in the series with HT-29 [35] was “Active” in each case. For the same compound, the IC50 was found to be 0.08 µM with NCI-H1975; 0.15 µM in the series on MV4-11; 0.11 µM in the series with PANC-1 [9]; 1.68 µM in the series with HepG2; 0.24 µM with MCF7; 0.0205 µM in series [13]. The 50% inhibitory concentration (IC50) in the series on A549 was 0.21 µM; with A-431, 0.33 µM; against Histone deacetylase 9, 0.0913 µM; in the series with L02, over 40 µM; in the series on SGC-7901 it was 0.26 µM; with K562, 0.02 µM. In addition, the 50% inhibitory concentration (IC50) in the series on HT-29 [27] is 0.12 µM; against Histone deacetylase 4 it was 0.0841 µM. The result with HT-29 [2], with PANC-1 [6], in the series with PANC-1 [8], with HT-29 [15], in the series on PANC-1 [21] and in the series on PANC-1 [26] was inactive. In addition, the outcome in the series with HT-29 [31], with HT-29 [32], with PANC-1 [33] and in the series on HT-29 [36] was inactive. Besides, the half-life at 1 µM was 35.4 min in [3], 14.4 min in [10] and 48 min in series [20]. Besides, the result with PANC-1 [5], in the series with PANC-1 [12], in the series with PANC-1 [16], in the series on PANC-1 [19], in the series with PANC-1 [22] and with PANC-1 [24] was Active. Further, in the series on HT-29 [30], the outcome was Active. The CLint scaled at 1 µM came out at 70.2 mL/min/kg in [7], 36.2 mL/min/kg in [17] and 379 mL/min/kg in [34]. Further, the inhibition result in series [13] is “Dose-Dependent Effect”. In addition, the Activity with HT-29 [18] was 46.2%; in the series with HT-29 [23], “Dose-Dependent Effect”; in the series with PANC-1 [25] it was “Dose-Dependent Effect”; in the series with PANC-1 [29], 55.1%.

For the compound `COc1cc(OC)c(/C=C/S(=O)(=O)Cc2ccc(OC)c(NC(=O)CCCC(=O)NO)c2)c(OC)c1`, the 50% inhibitory concentration (IC50) in the series on NCI-H1975 is 0.67 µM; in the series with HepG2 it was 5.89 µM; with MCF7, 3.78 µM; in the series on A549, 1.74 µM; in the series with A-431, 11.4 µM; with L02 it was over 40 µM. In addition, in the series with SGC-7901, the IC50 worked out at 1.87 µM.

Consider `COc1cc(OC)c(/C=C/S(=O)(=O)Cc2ccc(OC)c(NCCCCCC(=O)NO)c2)c(OC)c1`, for which the IC50 was 5.08 µM in the series on NCI-H1975; 4.64 µM with HepG2; 7.56 µM in the series with MCF7; 6.02 µM in the series with A549; 4.64 µM in the series on A-431; over 40 µM with L02. Also, the IC50 with SGC-7901 worked out at 4.92 µM.

For the compound `COc1cc(OC)c(/C=C/S(=O)(=O)Cc2ccc(OC)c(NCC(=O)Nc3ccccc3N)c2)c(OC)c1`, the 50% inhibitory concentration (IC50) in the series with NCI-H1975 was 2.18 µM; with HepG2, 4.75 µM; in the series on MCF7 it was 4.94 µM; with A549 it was 3.67 µM; in the series with A-431 it was 4.14 µM; in the series on L02, over 40 µM. The compound also registered a half-maximal inhibitory concentration (IC50) in the series with SGC-7901 of 4.98 µM.

Regarding `COc1cc(OC)c(/C=C/S(=O)(=O)Cc2ccc(OC)c(NC(=O)CCCC(=O)Nc3ccccc3N)c2)c(OC)c1`, the IC50 in the series on NCI-H1975 is 8.45 µM; with HepG2, 18.6 µM; in the series on MCF7, 17.7 µM; with A549 it was 35.5 µM; in the series on A-431 it was 4.11 µM; with L02, over 40 µM. In the series with SGC-7901, this compound showed an IC50 of 31.9 µM.

For `COc1cc(OC)c(/C=C/S(=O)(=O)Cc2ccc(OC)c(NC(=O)CCC(=O)Nc3ccccc3N)c2)c(OC)c1`, the half-maximal inhibitory concentration (IC50) with NCI-H1975 is 2.58 µM; in the series with HepG2, 12.3 µM; in the series on MCF7, 13.2 µM; in the series with A549, 7.41 µM; in the series with A-431, 1.26 µM; in the series with L02, over 40 µM. The same compound returned an IC50 with SGC-7901 of 6.6 µM.

As usually defined, the IC50 is the concentration at which inhibition is half-maximal. A word on the half-life: it is the time needed for the level to fall by half in the phase considered.
